# Measured values taken from the OPERA property sets (Mansouri et al. 2018).
row,SMILES,logP
1,CCCCCCCCCCCC[n+]1ccc(C)c(C)c1.[I-],1.75
2,O=C1NC(=O)C(=Cc2ccc([N+](=O)[O-])o2)S1,0.63
3,CC(=O)C(C#N)=NNc1ccc(Cl)cc1C,4.28
4,CCN1CCN=C1Nc1ncc([N+](=O)[O-])s1,2.28
5,COc1cc(Cc2cnc(N)nc2N)cc(OC)c1C,2.14
6,Clc1ccc(-c2cc(Cl)ccc2Cl)cc1,5.69
7,NC(=O)Nc1ccc(Oc2ccc(Br)cc2)cc1,3.7
8,CN(N=O)C(=O)Oc1cccc2ccccc12,2.85
9,Nc1ccccc1OC1OC(CO)C(O)C(O)C1O (stereo not given),-1.23
10,N#Cc1ccc([N+](=O)[O-])n1CCO,0.6
11,O=C1CN=C(c2ccccc2Br)c2cc(Cl)ccc2N1,3.17
12,Cn1nnc2ccccc21,1.13
13,O=C(O)COc1ccccc1-c1ccccc1,2.83
14,CNC=CC(C)c1ccccn1 (stereo not given),1.13
15,CN(C)c1cccc(C(N)=O)c1,0.95
16,CCCCCCN(SN(C)C(=O)ON=C(C)SC)C(=O)c1ccccc1,4.2
17,CCSCC1=Nc2cc(Cl)ccc2S(=O)(=O)N1,2.26
18,C#CC(C=CCl)(CC)OC(N)=O (stereo not given),1.71
19,COP(=O)(NCC(C)C)Oc1cc(Cl)c(Cl)cc1Cl (stereo not given),3.86
20,CCN(C)c1nc(N(C)CC)nc(N(C)CC)n1,3.9
21,CSc1nc2ccc(Cl)cc2[nH]1,3.22
22,O=NN(CCF)C(=O)NC1CCSCC1,1.43
23,NC(=O)CCn1nnc2ccccc21,0.27
24,CN(C)C(=O)Nc1cccc(OCCc2ccccc2)c1,3.39
25,O=C1CN=C(c2ccccc2Br)c2cc(Br)ccc2N1,3.3
26,CC(C)(C)c1cccc(OC2OC(CO)C(O)C(O)C2O)c1 (stereo not given),1.01

row,SMILES,logP
1,CS(=O)(=O)c1cccs1,0.38
2,O=[N+]([O-])c1nccn1CC(O)COCC(F)(F)F (stereo not given),0.52
3,C[N+](C)(C)Cc1cccnc1.[Br-],-3.5
4,CCCCCCCCOn1c(=O)[nH]c(C)c(Br)c1=O,3.39
5,CNC(=O)Oc1cccc(C(=O)OC)c1,1.42
6,CCOC(=O)C(=Cc1cccc(OC)c1)C(=O)OCC,3.18
7,O=C(O)CCN1C(=O)C=CC1=O,0.04
8,N#CC(C#N)=C(c1ccccc1)c1ccccc1,3.55
9,FC(F)(F)COC1C(Cl)C(Cl)C(Cl)C(Cl)C1Cl (stereo not given),4.15
10,CON=CCCc1ccccc1,2.14
11,CCC1(CC)SCC(=O)NC1=O,1.52
12,O=C(NCC(O)CO)Nc1ccccc1 (stereo not given),0.28
13,COP(N)(=O)Oc1cc(Cl)c(Cl)cc1Cl (stereo not given),2.53
14,CN(C)c1ccc(N=C2C=CC(=O)C=C2)cc1,2.02
15,O=C1CCC(=O)N1c1cccc(Br)c1,1.09
16,Clc1cc(Cl)cc(-c2c(Cl)c(Cl)cc(Cl)c2Cl)c1,7.37
17,NC1CC2CC1c1ccccc12 (stereo not given),2
18,CC(=O)C(C#N)=NNc1ccc(SC(F)(F)F)cc1,5.04
19,N#CC(=Cc1ccccc1)C(=O)Nc1ccccc1,3.41
20,CSC(C)=NOC(=O)N(C)SN(C)C(=O)c1ccc(C)cc1,2.5
21,FC1C(Cl)C(Cl)C(Cl)C(Cl)C1Br (stereo not given),3.28
22,Clc1cc(Cl)c(Cl)c(-c2ccc(Cl)c(Cl)c2Cl)c1,7.39
23,CCN(CC)c1ccc(CO)cc1,2.29
24,CNC(=O)c1ccccc1/N=N/N(C)C,1.83
25,CNC(=S)NCCSCc1nc[nH]c1C,0.5
26,CC(=O)OCC(Cn1ccnc1[N+](=O)[O-])OC(C)=O (stereo not given),-0.05

row,SMILES,logP
1,CCOP(=S)(OCC)Oc1ccc(SC)cc1Cl,4.4
2,Cc1cc(C)cc(NC(=O)N(C)C)c1,1.9
3,CNC(=O)NN,-2.2
4,O=c1ccnc2ccccn12,0.2
5,O=S(=O)(Nc1ccccc1)c1cccc2cccnc12,1.75
6,Cc1[nH]c(=O)n(OC(C)C)c(=O)c1Br,0.45
7,CCOC(=O)CCCCn1nnc2ccccc21,2.2
8,CCc1ccc2c(c1)N=C(C)NS2(=O)=O,1.25
9,CC1=Nc2cc(Br)ccc2S(=O)(=O)N1,1.37
10,CCCCNP(=O)(OC)SC (stereo not given),0.94
11,COC(=O)C(C#N)=NNc1ccc(C(F)(F)F)cc1[N+](=O)[O-],3.44
12,CNC(=O)O/N=C/C(C)(C)S(C)(=O)=O,-0.57
13,CNC(=O)Oc1ccc(S(C)(=O)=O)cc1,0.34
14,Nc1nc(-c2ccccc2)c2ccccc2n1,2.95
15,Cc1nnc(-c2ccccn2)o1,0.46
16,COc1ccc(Cc2cnc(N)nc2N)cc1,1.34
17,COc1ccc2c(c1)N=C(C)NS2(=O)=O,0.56
18,Nc1ccc(I)cc1C(=O)O,2.06
19,NNc1ncnc2ccccc12,1.67
20,Brc1cccc(Br)c1NC1=NCCN1,1.96
21,O=C(O)COc1cccc(S(F)(F)(F)(F)F)c1,2.78
22,Cc1cc(C)cc(OC2OC(CO)C(O)C(O)C2O)c1 (stereo not given),0.26
23,COc1cc(C)nn1-c1ccncn1,0.5
24,O=S1(=O)NC(C2CC=CCC2)=Nc2ccccc21 (stereo not given),2.05
25,CCOc1ccc2nc(S(=O)(=O)NC)sc2c1,2.59
26,O=C(O)COc1ccc(Cl)c(C(=O)O)c1,1.07

row,SMILES,logP
1,CC(C)(Cc1ccccc1)NC(=O)N(CCCl)N=O,3.73
2,CNP(=O)(OC)Oc1ccc(C(C)(C)C)cc1 (stereo not given),2.71
3,CCc1nnc(SC)n(N)c1=O,0.46
4,CC(=O)Oc1ccccc1F,1.76
5,CC(=O)Nc1ccc(O)c(C)c1,0.79
6,CCCCCCCCCCCC[n+]1ccc(C)cc1C.[I-],1.41
7,CCc1ccc2c(c1)C(c1ccccc1F)=NCC(=O)N2,2.92
8,CC12CC3(C)CC(C)(C1)CC(N)(C2)C3,4.01
9,Nc1cccc(OC(=O)CNC(=O)c2ccccc2)c1,1.3
10,O=S(=O)(Nc1ccc(C(F)(F)F)cc1)C(F)(F)F,4.47
11,CS(=O)(=O)c1cccc(OCC(=O)O)c1,0.01
12,CNC(=N)NC(=N)Nc1ccc(Cl)cc1,1.58
13,O=C(NCc1ccccc1O)c1ccccc1,2.55
14,Cc1ccoc1CN(C)C,1.63
15,Cc1ccc(NC(=O)c2ccco2)c(O)c1,2.84
16,CN1C(=O)C(=Cc2ccc([N+](=O)[O-])o2)SC1=S,1.06
17,CN(C)C(=O)Cc1ccco1,0.01
18,COC(=O)C(C#N)=NNc1cc(Cl)c(Cl)cc1Cl,5.15
19,S=C=NC(c1ccccc1)c1cccc2ccccc12 (stereo not given),6.44
20,COc1nnc(C(C)C)c(=O)n1N,-0.06
21,O=c1cc(-c2ccc([N+](=O)[O-])o2)sc(=O)[nH]1,0.55
22,CCOc1ccccc1OC(=O)NC,1.24
23,COc1cc(S(=O)(=O)CC(O)c2ccccc2)cc(OC)c1OC (stereo not given),1.65
24,Cc1ccc(OC2OC(CO)C(O)C(O)C2O)cc1 (stereo not given),-0.16
25,COC12C(COC(N)=O)C3=C(C(=O)C(C)=C(N)C3=O)N1CC1C2N1COC(=O)c1ccccc1 (stereo not given),1.26
26,CNc1ncnc2sccc12,1.43

row,SMILES,logP
1,O=[N+]([O-])c1cccc(C2NCCS2)c1 (stereo not given),1.59
2,CCCC1=Nc2cc(Cl)ccc2S(=O)(=O)N1,2.04
3,COc1cc(Cc2cnc(N)nc2N)cc(C)c1OC,1.62
4,COc1cc(C=C[N+](=O)[O-])ccc1O,1.88
5,COC(=O)C(C#N)=NNc1cc(C(F)(F)F)cc(C(F)(F)F)c1,5.02
6,CN(C)/N=N/c1[nH]ncc1C(N)=O,-0.12
7,O=C([O-])c1ccc2ccccc2c1.[Na+],-1.07
8,NC(=S)c1ncccn1,-0.34
9,CCc1n[nH]c(=O)[nH]c1=O,0.22
10,Cc1nnc(SCc2ccccc2)[nH]1,1.68
11,FC(F)OC(F)(F)C(F)Cl (stereo not given),2.1
12,CSC1=NC(=O)C(=Cc2ccc([N+](=O)[O-])o2)S1,1.41
13,COC(=O)[C@@H]1[C@@H](C=C(C)C)C1(C)C,3.76
14,COc1ccc(Cc2cnc(N)nc2N)cc1Nc1ccccc1,2.88
15,CCOC(=O)C(=Cc1cccc(F)c1)C(=O)OCC,3.19
16,Nc1ccc2c(c1)C(c1ccccc1)=NCC(=O)N2,1
17,ClC1C(Cl)C(Cl)C(I)C(Cl)C1Cl (stereo not given),4.05
18,CC1=Nc2c(I)cc(Cl)cc2S(=O)(=O)N1,1.81
19,O=C1C=CC(=NO)c2ccccc21,2.27
20,CCc1cc(=O)n2c(C)cccc2n1,1.59
21,COc1ccc(OC(=O)CNC(=O)c2ccccc2)cc1,2.28
22,O=C1CCCN1Cc1ccccc1,1.25
23,CN(C)/N=N/c1ccccc1C(=O)NN,1.28
24,CC(C)c1nnc(N)o1,0.2
25,NC(=O)COCc1ccco1,-0.11
26,CCOC(=O)CCN1C(=O)C=CC1=O,0.41

row,SMILES,logP
1,N#Cc1cc[n+]([O-])cc1,-0.94
2,CCCNc1ccc(C(=O)OCCN(C)C)cc1,3.15
3,O=C1CCC2CCCCC2C1 (stereo not given),1.97
4,OC(C1CO1)C(O)C1CO1 (stereo not given),-1.29
5,CCOP(=O)(OCC)Oc1c(Cl)cc(SC)cc1Cl,3.72
6,CCC(C)c1nnc(N)o1 (stereo not given),0.62
7,O=C1CN=C(c2ccccc2F)c2cc(Cl)c(Cl)cc2N1,3.63
8,CC(=O)C(C#N)=NNc1ccc([N+](=O)[O-])cc1[N+](=O)[O-],3.4
9,CSc1cccc(N=NN(C)C)c1,2.98
10,CC(N)Cc1ccc2c(c1)OCO2 (stereo not given),1.64
11,O=[N+]([O-])c1nccn1C1SC(CO)C(O)C(O)C1O (stereo not given),-0.66
12,O=NN(CCCl)C(=O)NCCCCNC(=O)N(CCCl)N=O,0.9
13,COc1ccc(Cc2cnc(N)nc2N)cc1Cl,1.65
14,Nc1nc(N)nc(-c2cc(Br)ccc2Br)n1,2.09
15,O=C1CN=C(c2cccc(Cl)c2)c2cc(Br)ccc2N1,3.63
16,CCOC(=O)N(C)SN(C)C(=O)Oc1cccc2c1OC(C)(C)C2,3.5
17,Nc1ncco1,-0.18
18,COP(=O)(NC(C)(C)C)SC (stereo not given),0.96
19,O=C(NN=Cc1ccccc1)c1ccccc1,2.56
20,CCN(CC)CCNC(=O)c1cc(Br)ccc1OC,3.2
21,O=S1(=O)N=C(c2ccccc2)Nc2ccccc21,1.78
22,CCc1c(OC)cc(Cc2cnc(N)nc2N)cc1OC,2.72
23,COc1ccc(C(c2ccc(OC)cc2)C(Cl)Cl)cc1,4.47
24,COC(=O)C1(n2ccnc2[N+](=O)[O-])CC(OC(C)=O)C(NC(C)=O)C(C(OC(C)=O)C(COC(C)=O)OC(C)=O)O1 (stereo not given),0.41
25,CC(=O)c1ccccc1NC(=O)C(Cl)Cl,2.65
